{
  "source": "patent US7074959B2",
  "about": "“Methods and systems for remediating hydrazine-contaminated equipment and/or surfaces” (New Mexico Highlands University, priority 2002, dated 2006)",
  "key": {"[1]": {"assay": "solubility of the hydrazine/2-ketoglutaric acid adduct in water", "type": "physicochemical", "conditions": "allows separation of most of the adduct by simple filtration", "source_text": "FIG. 3 illustrates a schematic diagram 300 depicting a reaction of 2-ketoglutataric acid, which provides a near quantitative conversion of hydrazine to a 6-oxo-1,4,5,6-tetrahydro-pyridazine-3-carbonic acid, a preferred embodiment of the present invention. In general, the chemical transformation depicted in schematic diagram 300 of FIG. 3 allows for the removal of hydrazine from aqueous solutions generated by the decontamination processes described herein. The reaction with concentrated hydrazine also can provide the desired product with some evolution of heat."}, "[2]": {"conditions": "MSDS listing; cited from earlier work"}},
  "data": [
    {"smiles": "O=C1CCC(C(=O)O)=NN1", "note": "[6-oxo-1,4,5,6-tetrahydro-pyridazine-3-carbonic acid]", "values": [
      {"measurement": "solubility in water", "setting": "[1]", "value": "low solubility"},
      {"measurement": "known acute toxicities listed in MSDS", "setting": "[2]", "value": "does not list any known acute toxicities"}
    ]}
  ]
}
